Experiments:
GLUTx [1] = assay: Immunocytochemical localisation of GLUTx in insulin-stimulated MTLn3 cells; type: cell-based, rat; conditions: insulin 500 nM, 1 h, basal state perinuclear Golgi region, data not shown
Protocol: (§1) Immunohistochemistry was performed according to protocols provided by the Dako LSAB (labeled streptoavidin biotin reagents) and Dako EnVision+System (peroxidase, DAB) kits. However, some modifications were made. In brief, tissue on a slide was deparaffinized in xylene, and rehydrated in water. For cells that were processed, the slides or coverslips containing the cells were fixed in 4% paraformaldehyde for 1 h, then washed 4 times in buffered solution (TBS). The slides were placed in 3% H2O2 for 15 min in a 37° C. water bath to quench endogenous peroxidase activity. Epitope retrieval in paraffin-embedded tissue was achieved by heating the slides to 95° C. in a pre-heated citric acid solution (0.01 M citric acid, 0.01 M sodium citrate; pH 6.0). This temperature was maintained for 15 min in a microwave on high power or in a steam bath. The slides then were cooled. At this point, processing was started for the slides containing fixed cells.
(§2) Next, the primary antibody to GLUTx was applied to the slides for 30 min at room temperature (RT). Slides were rinsed in TBS 3 times for 5 min. The slides then were incubated with secondary antibody, as provided in the kit, for 15–20 min at RT. The slides were rinsed well with PBS, and the tertiary reagent (Strep-Avidin or HRP-labeled EnVision polymer) was applied for 15–20 min at RT. […]

GLUTx [2] = assay: Immunocytochemical localisation of GLUTx in insulin-stimulated MTC cells; type: cell-based, rat; conditions: insulin 500 nM, 1 h, basal state mainly perinuclear Golgi region, data not shown
Protocol: as §1, §2

insulin: hormone used to stimulate the cells (500 nM for 1 h)
distribution of GLUTx (light microscopy) (GLUTx [1]): also associated with the cell membrane
distribution of GLUTx (light microscopy) (GLUTx [2]): localized also on the cell membrane

— patent publication US7001735B2, “Glucose transporter/sensor protein and uses thereof” (Albert Einstein College of Medicine of Yeshiva University, priority 2000, dated 2006)
